These are literature values, as cited in EP4759820A1, “METHOD FOR PRODUCING PEPTIDE COMPOUND USING STAND-ALONE-TYPE CONDENSING AGENT” (CHUGAI SEIYAKU KABUSHIKI KAISHA, priority 2023, dated 2025).

Broadly, the pKa is the negative logarithm of the acid dissociation constant.

The conditions of one data set: conjugate acid of the base; water as solvent, 25°C; literature reference given with each value.
As to `CN1CCOCC1` [N-methylmorpholine], the pKa is reported as 7.38.

The same data set, now with this note: representative additives; water as solvent, 25°C; literature reference given with each value.
As for `ON=c1[nH]cc[nH]1` [1,3-Dihydro-2H-imidazol-2-one oxime], the pKa is listed as 8.2.
As for `CN(C)[S+]([O-])C(=NO)c1ccccc1` (stereo not shown) [1-(Hydroxyimino)-N,N-dimethyl-1-phenylmethanesulfinamide], the pKa is given as 7.4.
With `O=[N+]([O-])C(CCc1ccccc1)=NO` [1-Nitro-3-phenylpropan-1-oneoxime], the pKa is given as 7.4.
In the case of `NC(=O)C(=NO)c1nccs1` [2(Hydroxyimino)-2-(thiazol-2-yl)acetamide], the pKa is on record as 8.7.
On to `C[n+]1ccccc1C(=NO)c1ccccn1.[I-]` [2-((Hydroxyimino)(pyridin-2-yl)methyl)-1-methylpyridin-1-iumiodide], for which the pKa is 5.6.
Turning to `NC(=O)C(=NO)c1ccco1` [2-(Furan-2-yl)-2-(hydroxyimino)acetamide], the pKa is reported as 9.4.
With `NC(=O)C(=NO)c1ccc[nH]1` [2-(Hydroxyimino)-2-(1H-pyrrol-2-yl)acetamide], the pKa is given as 9.4.
Regarding `CS(=O)(=O)C(=NO)C(N)=O` [2-(Hydroxyimino)-2-(methylsulfonyl)acetamide], the pKa was 9.4.
For the compound `NC(=O)C(=NO)c1cnccn1` [2-(Hydroxyimino)-2-(pyrazin-2-yl)acetamide], the pKa is recorded as 9.4.
With `NC(=O)C(=NO)c1ncccn1` [2-(Hydroxyimino)-2-(pyrimidin-2-yl)acetamide], the pKa was 9.4.
For the compound `NC(=S)C(=NO)c1ncccn1` [2-(Hydroxyimino)-2-(pyrimidin-2-yl)ethanethioamide], the pKa is 10.5.
In the case of `NC(=O)C(=NO)c1cccs1` [2-(Hydroxyimino)-2-(thiophen-2-yl)acetamide], the pKa is 9.4.
`C#CC(=NO)C(N)=O` [2-(Hydroxyimino)but-3-ynamide]: the pKa is reported as 9.4.
With `NC(=O)C(=NO)C(N)=O` [2-(Hydroxyimino)malonamide], the pKa is 9.4.
As for `CN1C(=O)C(=NO)c2ccccc21` [3-(Hydroxyimino)-1-methylindolin-2-one], the pKa is 9.4.
Consider `O=C1C(=NO)c2ccccc2N1c1ccccc1` [3-(Hydroxyimino)-1-phenylindoline-2-one], for which the pKa is 9.0.
For the compound `ON=C1c2ccccc2-c2ccccc21` [9H-Fluoren-9-one oxime], the pKa was 11.1.
`CS(=O)(=O)C(=NO)[S+](N)[O-]` (stereo not shown) [(Hydroxyimino)(methylsulfonyl)methanesulfinamide]: the pKa is recorded as 9.4.
`ON=C1c2ccccc2C(=NO)c2ccccc21` [Anthracene-9,10-dionedioxime]: the pKa is 7.1.
With `CC(=NO)C(C)=NO` [Butane-2,3-dionedioxime], the pKa is listed as 12.1.
As for `CCOC(=O)C(NO)C(=O)OCC` [Diethyl 2-(hydroxyamino)malonate], the pKa is on record as 7.2.
As for `CC(C)OC(=O)C(=NO)C(=O)OC(C)C` [Diisopropyl 2-(hydroxyimino)malonate], the pKa was 7.2.
With `CCOC(=O)C(=NO)c1ccco1` [Ethyl 2-(furan-2-yl)-2-(hydroxyimino)acetate], the pKa is 9.6.
For the compound `CCOC(=O)C(NO)[N+](=O)[O-]` (stereo not shown) [Ethyl 2-(hydroxyamino)-2-nitroacetate], the pKa was 4.7.
Consider `CCOC(=O)C(=NO)S(=O)(=O)C(F)(F)F` [Ethyl 2-(hydroxyimino)-2-((trifluoromethyl)sulfonyl)acetate], for which the pKa is reported as 4.2.
For `CCOC(=O)C(=NO)c1cnccn1` [Ethyl 2-(hydroxyimino)-2-(pyrazin-2-yl)acetate], the pKa was 9.4.
As to `CCOC(=O)C(=NO)c1ccccn1` [Ethyl 2-(hydroxyimino)-2-(pyridine-2-yl)acetate], the pKa is 9.6.
In the case of `CCOC(=O)C(=NO)c1ccncc1` [Ethyl 2-(hydroxyimino)-2-(pyridine-4-yl)acetate], the pKa was 9.6.
In the case of `CCOC(=O)C(=NO)c1ncccn1` [Ethyl 2-(hydroxyimino)-2-(pyrimidin-2-yl)acetate], the pKa was 9.6.
With `CCOC(=O)C(=NO)c1cccs1` [Ethyl 2-(hydroxyimino)-2-(thiophen-2-yl)acetate], the pKa is 9.6.
Consider `CCOC(=O)C(=NO)S(N)(=O)=O` [Ethyl 2-(hydroxyimino)-2-sulfamoylacetate], for which the pKa is 5.8.
For `CCOC(=O)C(=NO)c1ccc[nH]1` [Ethyl 2-(hydroxyimino)-(1H-pyrrol-2-yl)acetate], the pKa is on record as 9.6.
On to `C#CC(=NO)C(=O)OCC` [Ethyl 2-(hydroxyimino)but-3-ynoate], for which the pKa was 9.6.
Turning to `O=c1c2ncccc2ncn1O` [HODhad, 3-Hydroxypyrido[3,2-d]pyrimidin-4(3H)-one], the pKa is 5.8.
Consider `O=C1Cc2ccccc2N1O` [HOI, 1-Hydroxyindolin-2-one], for which the pKa is 8.3.
In the case of `O=C1CCC(=O)N1O` [HOSu, 1-Hydroxypyrrolidine-2,5-dione], the pKa was 7.7.
In the case of `N#CC(=NO)c1ccccc1` [Hydroxyimino-2-phenylacetonitrile], the pKa is 8.2.
For `ON=C1NCCN1` [Imidazolidin-2-one oxime], the pKa was 12.5.
As for `NC(=O)C(NO)C(=O)N(O)O` (stereo not shown) [N',N'-Dihydroxy-2-(hydroxyamino)malonamide], the pKa was 7.7.
For the compound `NC(=NO)c1cnccn1` [N'-Hydroxypyrazine-2-carboximidamide], the pKa was 12.5.
For the compound `O=[N+]([O-])C(=NO)c1ccccc1` [Nitro(phenyl)methanone oxime], the pKa is 7.6.
Take `ON=c1[nH]cco1` [Oxazol-2(3H)-one oxime]: the pKa was 6.6.
For the compound `ON=C1NCCO1` [Oxazolidin-2-one oxime], the pKa is 12.5.
In the case of `CCOC(=O)C(C#N)=NO` [oxyma, ethyl 2-cyano-2-(hydroxyimino)acetate], the pKa was 4.60.
Consider `CC(C)(C)OC(=O)C(C#N)=NO` [tert-Butyl 2-cyano-2-(hydroxyimino)acetate], for which the pKa was 4.60.
